According to patent US9335332B2, “Nicotinamide phosphoribosyltransferase (NMPRTase) inhibitor for glioma therapy” (COUNCIL OF SCIENTIFIC AND INDUSTRIAL RESEARCH, priority 2010, dated 2016):

What was measured:
NMPRTase [1] = biological target: T1, NMPRTase (Homo sapiens, UniProt P43490); assay: NMPRTase assay: conversion of 14[C]-nicotinamide to 14[C]-NAD by U87 cell extract; format: biochemical; details: 14[C]-NAD formed, FIG. 2C, 3A and 3B
T1 construct: To prepare cytoplasmic extract, as source of NMPRTase, logarithmically growing U87 glioblastoma cells were collected; endogenous in cells; host or cells: U87 glioblastoma cells (cytoplasmic extract)
Procedure: In accordance with the inventive steps, the measurement of NMPRTase activity was carried. To prepare cytoplasmic extract, as source of NMPRTase, logarithmically growing U87 glioblastoma cells were collected by centrifugation and washed three times with Ca^2+, Mg^2+ free PBS. The cells pellet (2 to 3×10^7 cells) was suspended and lysed in 1 mL of 0.01 M NaH2PO4 (pH 7.4) by one round of freezing and slow thawing. The clear supernatant was recovered on ice after centrifugation at 23,000×g at 0° C. for 90 mins. […] of 1% protamine sulfate were added per ml of supernatant and incubated for 15 min on ice, followed by centrifugation at 23,000×g at 0° C. for 30 mins. The final supernatant was stored in small aliquots at −80° C. The NMPRTase activity was determined in 0.5 ml of reaction solution consisting of 5 mM MgCl2, 2 mM ATP, 0.5 mM phosphoribosyl PPI (pyrophosphate), 0.1 mM 14[C]-nicotinamide (specific activity: 50 mCi/mmol; American Radiolabeled Chemicals, Inc.) and 50 mM Tris (pH 8.8) at 37° C. […] The precipitate was removed by centrifugation at 2500×g at 4° C. for 10 min and the supernatant was stored at −20° C. The 14[C]-labeled components in the cell extracts were separated and identified using thin-layer chromatography (cellulose/1 M ammonium sulphate:ethanol (3:7). The chromatograms were run and exposed to imaging plates (Fuji) read using Phosphoimger (Fuji) the 14[C]-labeled NAD was quantified using Alpha Innotec software.
In accordance with the inventive steps, selected compounds were tested for inhibition of NMPRTase activity. Measurement of the ability of NMPRTase to convert 14[C]-nicotinamide to 14[C]-NAD was carried out. Most of the glioblastoma tissues have elevated levels of transcript and protein of PBEF1/NMPRTase. To prepare NMPRTase enzyme, firstly a panel of glioma derived cell lines was tested for NMPRTase transcript and protein levels.

[2] = system: glioma derived cell line U87; assay: MTT viability assay, U87 cells; format: cell-based; details: Homo sapiens, U-87 MG, MTT at 48 hrs after addition of compounds
Procedure: Viability was measured by MTT assay at 48 hrs after addition of indicated compounds to U87 cells. The assays were carried out in triplicates and the mean value for each time point was used to generate the graph.
In accordance with the inventive steps, MTT assay was performed (Das, S.; El-Deiry, W. S.; Somasundaram, K. Efficient growth inhibition of HPV 16 E6-expressing cells by an adenovirus-expressing p53 homologue p73beta. Oncogene 2003, 22, 8394-402). A total of 1.5×10^3 cells/well were plated in a 96-well plate. After 24 h of plating, the cells were treated with indicated amounts of compounds. A measure of 20 μL (5 mg/mL) of MTT was added to each well 48 hrs after the addition of the compounds. MTT is a tetrazolium salt that is converted by living cells into purple formazan crystals. The medium was removed from the wells 3 hrs after MTT addition and 200 μL of DMSO (Dimethyl sulfoxide) was added to dissolve the formazan crystals, and then the absorbance was measured at 550 nm in an ELISA reader.
In accordance with the inventive steps, to correlate the NMPRTase inhibition property with cell growth inhibition, the ability of these compounds to inhibit the growth of a glioma derived cell line U87 was tested, which has elevated levels of PBEF1.

NMPRTase [3] = biological target: T1, NMPRTase; details: reference compounds, Table 1A; cited from earlier work

T1 sequence (P43490 whole entry): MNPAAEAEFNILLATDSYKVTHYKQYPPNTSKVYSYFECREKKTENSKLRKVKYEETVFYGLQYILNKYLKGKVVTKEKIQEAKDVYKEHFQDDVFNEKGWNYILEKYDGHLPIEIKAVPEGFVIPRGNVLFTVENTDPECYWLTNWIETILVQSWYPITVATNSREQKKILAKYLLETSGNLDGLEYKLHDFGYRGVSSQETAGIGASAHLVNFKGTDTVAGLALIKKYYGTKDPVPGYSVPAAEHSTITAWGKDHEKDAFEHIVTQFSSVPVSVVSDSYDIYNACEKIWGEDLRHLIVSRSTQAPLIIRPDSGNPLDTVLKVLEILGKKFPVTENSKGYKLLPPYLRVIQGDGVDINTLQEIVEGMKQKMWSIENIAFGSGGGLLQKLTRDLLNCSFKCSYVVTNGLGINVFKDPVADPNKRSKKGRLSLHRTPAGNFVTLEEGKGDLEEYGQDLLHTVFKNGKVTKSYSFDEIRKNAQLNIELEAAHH

Compound | Inhibition of NMPRTase activity (NMPRTase [1]) | IC50 [2] [µM] | Biochemical energy of binding (NMPRTase [3]) [kcal/mol]
O=C1c2cc(S(=O)(=O)[O-])ccc2-c2ccc(S(=O)(=O)[O-])cc21.[K+].[K+] [Compound 1, Dipotassium 9-oxo-9H-fluorene-2,7-disulfonate] | did not inhibit NMPRTase activity | 335 | –
CCOC(=O)c1nn(-c2ccccc2)c(=O)c2c(N)c(C#N)c(-c3ccco3)cc12 [Compound 2, Ethyl-5-amino-6-cyano-7-(2-furyl)-4-oxo-3-phenyl-3,4-dihydro-1-phthalazinecarboxylate] | – | > 500 | –
CC12OC(c3ccccc3)=CC(c3ccccc3)=C1C(c1ccccc1)=CC2=O (centres unmarked) [Compound 4, 7a-methyl-2,4,5-triphenyl-7,7a-dihydrocyclopenta[b]pyran-7-one] | inhibited NMPRTase activity | > 500 | –
Cc1nn(-c2ccccc2)nc1CNC(=O)C1=Cc2ccccc2OC1 [Compound 6, N-[(5-methyl-2-phenyl-2H-1,2,3-triazol-4-yl)methyl]-2H-chromene-3-carboxamide] | – | > 500 | –
O=C(/C=C/c1cccnc1)NCCCCC1CCN(C(=O)c2ccccc2)CC1 [FK866, reference compound] | inhibited efficiently | 170 | -9.25
NC(=O)c1cccnc1 [Nicotinamide] | – | > 500 | –

Now from value to molecule, other results behind:

Inhibition of NMPRTase activity (NMPRTase [1]) | IC50 [2] [µM] | Compound | Biochemical energy of binding (NMPRTase [3]) [kcal/mol]
– | > 500 | CC(=O)c1cc(-n2nc3ccccc3n2)c(O)c(-n2nc3ccccc3n2)c1O [Compound 3, 1,[3,5-Di(2H-1,2,3-benzotriazol-2-yl)-2,4-dihydroxyphenyl]ethan-1-one] | –
inhibited NMPRTase activity | 325 | Nc1c(-c2ccc3ccccc3n2)c2ccc([N+](=O)[O-])cc2c(=O)n1Cc1ccccc1 [Compound 5, 3-amino-2-benzyl-7-nitro-4-(2-quinolyl)-1,2-dihydroisoquinolin-1-one] | –
– | > 500 | O=C(O)c1cccnc1 [Niacin, reference compound] | –
